# Measured values published in ChEMBL document CHEMBL4265916, “Synthesis and antiproliferative activities of novel quartenary ammonium spinosyn derivatives” (Bioorg Med Chem Lett, 2018).
# The source made the active and inactive calls. No cut-off for these calls is given here.
# Experiments:
# [1] = tested on: NCI-H460; experiment: Induction of apoptosis in human NCI-H460 cells assessed as early apoptotic cells at 32 uM after 48 hrs by Annexin V-FITC/propidium iodide staining-based flow cytometric analysis (reference value: 2.17%); type: functional
# [2] = tested on: NCI-H460; experiment: Antiproliferative activity against human NCI-H460 cells after 48 hrs by MTT assay; type: functional, cell-based; settings: NCI-H460, 48 h
# [3] = tested on: NCI-H460; experiment: Induction of apoptosis in human NCI-H460 cells assessed as early apoptotic cells at 64 uM after 48 hrs by Annexin V-FITC/propidium iodide staining-based flow cytometric analysis (reference value: 2.17%); type: functional
# [4] = tested on: NCI-H460; experiment: Induction of apoptosis in human NCI-H460 cells after 48 hrs by Annexin V-FITC/propidium iodide staining-based flow cytometric analysis; type: functional, cell-based
# [5] = tested on: HCT-116; experiment: Antiproliferative activity against human HCT116 cells after 48 hrs by MTT assay; type: functional, cell-based; settings: HCT-116, 48 h
# [6] = tested on: NCI-H460; experiment: Induction of apoptosis in human NCI-H460 cells assessed as viable cells at 32 uM after 48 hrs by Annexin V-FITC/propidium iodide staining-based flow cytometric analysis (reference value: 93.9%); type: functional; settings: NCI-H460, 48 h, read-out: Activity
# [7] = tested on: NCI-H460; experiment: Induction of apoptosis in human NCI-H460 cells assessed as necrotic cells at 64 uM after 48 hrs by Annexin V-FITC/propidium iodide staining-based flow cytometric analysis (reference value: 2.11%); type: functional
# [8] = tested on: NCI-H460; experiment: Induction of apoptosis in human NCI-H460 cells assessed as viable cells at 64 uM after 48 hrs by Annexin V-FITC/propidium iodide staining-based flow cytometric analysis (reference value: 93.9%); type: functional; settings: NCI-H460, 48 h, read-out: Activity
# [9] = tested on: U-87 MG; experiment: Antiproliferative activity against human U87MG cells after 48 hrs by MTT assay; type: functional, cell-based, U-87MG ATCC
# [10] = tested on: NCI-H460; experiment: Induction of apoptosis in human NCI-H460 cells assessed as late apoptotic cells at 32 uM after 48 hrs by Annexin V-FITC/propidium iodide staining-based flow cytometric analysis (reference value: 1.80%); type: functional
# [11] = tested on: NCI-H460; experiment: Growth inhibition of human NCI-H460 cells at 32 uM after 48 hrs by MTT assay; type: functional, cell-based
# [12] = tested on: NCI-H460; experiment: Induction of apoptosis in human NCI-H460 cells assessed as necrotic cells at 32 uM after 48 hrs by Annexin V-FITC/propidium iodide staining-based flow cytometric analysis (reference value: 2.11%); type: functional
# [13] = tested on: MCF7; experiment: Antiproliferative activity against human MCF7 cells at 50 uM after 48 hrs by MTT assay; type: functional
# [14] = tested on: NCI-H460; experiment: Induction of apoptosis in human NCI-H460 cells assessed as late apoptotic cells at 64 uM after 48 hrs by Annexin V-FITC/propidium iodide staining-based flow cytometric analysis (reference value: 1.80%); type: functional
# [15] = tested on: NCI-H460; experiment: Inhibition of oxygen consumption rate in human NCI-H460 cells at 32 uM after 1 hr; type: functional
# [16] = tested on: MCF7; experiment: Antiproliferative activity against human MCF7 cells after 48 hrs by MTT assay; type: functional, cell-based; settings: MCF7, 48 h
compound,measurement,setting,value
CC[C@H]1CCC[C@H](O[C@H]2CC[C@H](N(C)C)[C@@H](C)O2)[C@@H](C)C(=O)C2=C[C@@H]3[C@@H](C=C[C@@H]4C[C@@H](O[C@@H]5O[C@@H](C)[C@H](OC)[C@@H](OC)[C@H]5OC)C[C@@H]34)[C@@H]2CC(=O)O1 [SPINOSYN A],Activity,[1],3.11%
same,IC50,[2],66 µM
same,Activity,[3],4.53%
same,Activity,[4],Dose-dependent effect
same,IC50,[5],10.7 µM
same,viability at 32 µM,[6],90.8%
same,Activity,[7],2.33%
same,viability at 64 µM,[8],87.8%
same,IC50,[9],104 µM
same,Activity,[10],4.41%
same,growth inhibition (GI),[11],inactive
same,Activity,[12],1.69%
same,Activity,[13],92.6%
same,Activity,[14],5.33%
same,inhibition,[15],Active
same,IC50,[16],16.7 µM
